# Assay results published in patent publication US7939536B2, “Pyrimidinylisoxazole derivatives” (Aska Pharmaceutical Co., Ltd., priority 2004, dated 2011).
# Experiment: Measurement of the compounds' metabolic rate (human liver S9)
# Type: in vitro ADME
# Settings: human liver S9 0.5 mg protein/mL, NADPH generating system, 1 μmol/L test compound, 37° C. for 5 minutes, LC/MS/MS
# Experimental: (2) Measurement of the Compounds' Metabolic Rate:
# Each test compound was added to potassium phosphate buffer (50 mmol/L, pH7.4) containing NADPH generating system (comprising 3.3 mmol/L MgCl2, 3.3 mmol/L glucose 6-phosphate, 1.3 mmol/L β-NADP^+ and 0.4 unit/mL glucose 6-phosphate dehydrogenase) (in which occasion the final concentration was rendered 1 μmol/L) and incubated at 37° C. for 2 minutes. After the incubation, a suspension of human liver S9(the supernatant fraction obtained by centrifuging comminuted human liver cell fluid at 9000×g) in potassium phosphate buffer was added to the system, to the final concentration of 0.5 mg protein/mL. This reaction mixture was incubated at 37° C. for 5 minutes, and to which 4 volume times the reaction mixture of acetonitrile was added, mixed, cooled with ice and centrifuged (2000×g, 10 minutes). A part of the supernatant was taken and analyzed by LC/MS/MS, to determine the remaining rate of unchanged substance in the reaction mixture. The results are shown in the following Table A, concurrently with the measured results of TNF-α production inhibition action in (1) above.
row,Metabolic rate (remaining rate of unchanged substance: %) [%],SMILES
1,5.8,"O=C(Cc1ccccc1Cl)Nc1onc(-c2ccc(F)cc2)c1-c1ccncn1 [Example 5, 5-[(2-chlorophenyl)acetylamino]-3-(4-fluorophenyl)-4-(4-pyrimidinyl)isoxazole]"
2,16.1,"O=C(Cc1c(F)cccc1Cl)Nc1onc(-c2ccc(F)cc2)c1-c1ccncn1 [Example 13, 5-[(2-Chloro-6-fluorophenyl)acetylamino]-3-(4-fluorophenyl)-4-(4-pyrimidinyl)isoxazole]"
3,53.1,"O=C(Cc1ccccc1Cl)Nc1onc(-c2ccc(Cl)cc2)c1-c1ccncn1 [Example 61, 3-(4-Chlorophenyl)-5-[(2-chlorophenyl)acetylamino]-4-(4-pyrimidinyl)-isoxazole]"
4,20.4,"O=C(Cc1ccccc1Cl)Nc1onc(-c2ccc(F)cc2F)c1-c1ccncn1 [Example 105, 5-[(2-Chlorophenyl)acetylamino]-3-(2,4-difluorophenyl)-4-(4-pyrimidinyl)isoxazole]"
5,46.6,"Cc1cccc(CC(=O)Nc2onc(-c3ccc(F)cc3F)c2-c2ccncn2)c1 [Example 121, 3-(2,4-Difluorophenyl)-5-[(3-methylphenyl)acetylamino]-4-(4-pyrimidinyl)isoxazole]"
6,24.1,"COc1ccc(-c2noc(NC(=O)Cc3ccccc3Cl)c2-c2ccncn2)c(F)c1 [Example 174, 5-[(2-Chlorophenyl)acetylamino]-3-(2-fluoro-4-methoxyphenyl)-4-(4-pyrimidinyl)isoxazole]"
7,21.2,"Cc1cccc(-c2noc(NC(=O)Cc3ccccc3Cl)c2-c2ccncn2)c1 [Example 201, 5-[(2-Chlorophenyl)acetylamino]-3-(3-methylphenyl)-4-(4-pyrimidinyl)isoxazole]"
8,43.6,"Cc1cccc(-c2noc(NC(=O)Cc3ccccc3Br)c2-c2ccncn2)c1 [Example 202, 5-[(2-Bromophenyl)acetylamino]-3-(3-methylphenyl)-4-(4-pyrimidinyl)isoxazole]"
9,59.9,"Cc1cccc(-c2noc(NC(=O)Cc3ccccc3C)c2-c2ccncn2)c1 [Example 214, 3-(3-Methylphenyl)-5-[(2-methylphenyl)acetylamino]-4-(4-pyrimidinyl)isoxazole]"
10,38.5,"Cc1cccc(CC(=O)Nc2onc(-c3cccc(C)c3)c2-c2ccncn2)c1 [Example 215, 3-(3-Methylphenyl)-5-[(3-methylphenyl)acetylamino]-4-(4-pyrimidinyl)isoxazole]"
11,39.8,"Cc1ccc(F)c(-c2noc(NC(=O)Cc3ccccc3)c2-c2ccncn2)c1 [Example 224, 3-(2-Fluoro-5-methylphenyl)-5-(phenylacetylamino)-4-(4-pyrimidinyl)isoxazole]"
12,33.1,"COc1cccc(CC(=O)Nc2onc(-c3ccc(F)c(C)c3)c2-c2ccncn2)c1 [Example 253, 5-[(3-Methoxyphenyl)acetylamino]-3-(3-methyl-4-fluorophenyl)-4-(4-pyrimidinyl)isoxazole]"
13,52.6,"Cc1cc(-c2noc(NC(=O)Cc3ccccc3C)c2-c2ccncn2)ccc1F [Example 257, 3-(3-Methyl-4-fluorophenyl)-5-[(2-methylphenyl)acetylamino]-4-(4-pyrimidinyl)isoxazole]"
